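Growth conditions: 96-well plates. Treatment: test compound, 48 hours, 5 concentrations. Analysis: linear interpolation between bracketing concentrations; unreached endpoints set to highest concentration. GI50: concentration for 50% inhibition of growth. The concentration for full growth arrest is given as TGI.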 Where a SMILES comes first, the peptide text is derived from it.
Assays:
Test in all cases: NCI tumour cell line growth inhibition, 48 h
DMS 273 small cell lung = system: DMS 273 small cell lung
SN12C renal = system: SN12C renal
OVCAR-3 ovarian = system: OVCAR-3 ovarian
DMS 114 small cell lung = system: DMS 114 small cell lung
NCI-H23 lung = system: NCI-H23 lung
U251 CNS = system: U251 CNS
OVCAR-5 ovarian = system: OVCAR-5 ovarian
A498 renal = system: A498 renal
M19-MEL melanoma = system: M19-MEL melanoma
T-47D breast = system: T-47D breast
MDA-N = system: MDA-N
PC-3 prostate = system: PC-3 prostate

Structure (SMILES)	TGI (DMS 273 small cell lung)	TGI (SN12C renal)	TGI (OVCAR-3 ovarian)	TGI (DMS 114 small cell lung)	TGI (NCI-H23 lung)	TGI (U251 CNS)	TGI (OVCAR-5 ovarian)	TGI (A498 renal)	TGI (M19-MEL melanoma)	TGI (T-47D breast)	TGI (MDA-N)	TGI (PC-3 prostate)	GI50 (A498 renal)
C=C1C(=O)O[C@@H]2[C@H]3O[C@]3(C)CCC=C(C)CC[C@@H]12	> 60.3 µM	50.2 µM	40.7 µM	165 µM	52.7 µM	88.6 µM	63.6 µM	13.3 µM	33.7 µM				
CN(C)c1nc(N(C)C)nc(N(C)C)n1	> 147 µM	> 150 µM	> 143 µM	> 150 µM	> 143 µM	> 150 µM	> 150 µM	> 150 µM	> 148 µM	> 150 µM	> 150 µM	> 150 µM	
CC1NC(=O)CNC(=O)CNC(=O)C(Cc2ccc(O)cc2)NC(=O)C(C(C)C)NC(=O)C(C)NC1=O (stereo unspecified) (cyclo(GGAAVY); configuration not given here)	> 100 µM	> 100 µM	> 100 µM	> 100 µM	> 100 µM	> 100 µM	> 100 µM	> 100 µM	> 100 µM				75.6 µM
Clc1ccc(-c2nn3c(CCCCCCCCc4nnc5sc(-c6ccc(Cl)cc6)nn45)nnc3s2)cc1		> 63.1 µM	59 µM		> 92.6 µM	39.8 µM	> 100 µM	> 85.9 µM		34 µM	> 94.7 µM	69.7 µM	
COc1cc(NS(C)(=O)=O)ccc1NCc1cnc2ccc3[nH]c(C)ccc3c12		> 100 µM	91.9 µM		> 100 µM	> 100 µM	> 100 µM	42 µM		75 µM	> 100 µM	> 100 µM	
CSc1ccc2c(cc1=O)[C@@H](NC(C)=O)CCc1cc(O)c(O)c(O)c1-2		> 100 µM	34.2 µM		44.9 µM	45.3 µM	35.9 µM	> 100 µM		> 100 µM	61.1 µM	> 100 µM	
CCCCCC(CN1CCOCC1)C(=O)/C=C/c1ccccc1 (stereo unspecified)	6.1 µM	10.5 µM	8.64 µM	5.17 µM	11.9 µM	9.19 µM	11.1 µM		7.05 µM				
CC/C(=N\NC(=O)c1cccnc1)c1ccc2c(c1)OCCO2		> 100 µM	> 100 µM		> 100 µM	> 100 µM	> 100 µM	> 100 µM		> 100 µM	> 100 µM	> 100 µM	
Cn1cc(C(=O)c2nccc3c2cnc2ccccc23)ccc1=O		> 100 µM	> 100 µM		> 100 µM	> 100 µM	> 100 µM	> 100 µM		> 100 µM	> 100 µM	> 100 µM	
O=C(c1ccccc1)c1ccc(C(c2c(O)c3ccccc3oc2=O)c2c(O)c3ccccc3oc2=O)cc1		> 77.2 µM	> 56.6 µM		49 µM	> 78.4 µM	51.4 µM	62.6 µM		> 100 µM	> 71.7 µM	> 74.5 µM	
CCN(CC)c1ccc(/C=C(\C#N)c2nc(N)nc(N3N=C(C)CC3(C)C)n2)cc1		71.2 µM	37.9 µM		> 80.9 µM	26.1 µM	93.9 µM	35.2 µM		39.6 µM	> 100 µM	> 100 µM	
NCc1ccc(-c2ccc(-c3ccc(-c4ccc(CN)s4)s3)s2)s1		> 100 µM	> 100 µM		> 100 µM	> 100 µM	> 100 µM	> 100 µM		> 100 µM	> 100 µM	> 100 µM	
C=C(O)c1ccccc1C#Cc1ccccc1C(=O)OC		> 10 µM	> 10 µM		> 10 µM	> 10 µM	> 10 µM	> 10 µM		> 10 µM	> 10 µM	> 10 µM	
CC1=C2C(O)C(C(C)C(=O)NCC(C)C)CCC2(C)C=CC1=O (stereo unspecified)	> 100 µM	> 100 µM	> 100 µM	> 100 µM	> 100 µM	> 100 µM	> 100 µM	> 100 µM	> 100 µM				
COc1ccc(OC)c(C2CCc3nc4nc(N)nc(N)c4cc3C2)c1 (stereo unspecified)		3.33 µM	3.54 µM		38.3 µM	3.28 µM	23.3 µM	27.5 µM		3.78 µM	5.04 µM	11.5 µM	
CN1C2CCC1CC(OC(c1ccccc1)c1ccccc1)C2 (stereo unspecified)		> 100 µM	47 µM		83.3 µM	28.9 µM	41.2 µM	28.4 µM		80.1 µM	28.8 µM	37.3 µM	
C/C(=N/NC(=S)Nc1ccccc1Cl)c1ccccn1		8.4 µM	10.9 µM		32.8 µM	15.3 µM	5.26 µM	9.31 µM		6.82 µM	19.7 µM	27.3 µM	
Cc1ccc(S(=O)ON2CCC(C(=O)O)(c3ccccc3)CC2)cc1 (stereo unspecified)		> 100 µM	> 100 µM		> 100 µM	> 100 µM	> 100 µM	> 100 µM		> 100 µM	> 100 µM	> 100 µM	
Brc1cccc(/C=C/CN2CCN(CCOC(c3ccccc3)c3ccccc3)CC2)c1		32.3 µM	30.2 µM		36.9 µM	27.5 µM	34.7 µM	32 µM		18.6 µM	32.9 µM	26.5 µM	
C[C@]12CC[C@@H]3c4ccc(O)cc4CC[C@H]3[C@@H]1C/C(=C\c1ccc([N+](=O)[O-])cc1)C2=O		> 100 µM	> 100 µM		> 100 µM	> 100 µM	> 100 µM	> 100 µM		> 100 µM	> 100 µM	> 100 µM	
CC(C)=CCC[C@]1(C)CC[C@]2(C)C3CCC(=C(C)C)[C@@H](CCCO)[C@]3(C)CC[C@@]2(C)C1 (stereo partly specified)		> 100 µM	> 100 µM		> 100 µM	61.4 µM	> 100 µM	> 100 µM		29.6 µM	> 100 µM	> 100 µM	
NC(N)=NCCCC(N=c1c2ccccc2n(O)c2ccccc12)C(=O)O (stereo unspecified)	> 100 µM	> 100 µM	> 100 µM	> 100 µM	> 100 µM	> 100 µM	> 100 µM	> 100 µM	> 100 µM				

Source: PubChem BioAssay (NCI)
